Measurements as given in US20260199282A1, “METHODS AND COMPOSITIONS FOR IMPROVING DRIVING PERFORMANCE” (priority 2022, published 2026).

Test system: subjects with EDS due to OSA
Test: Standardized on-road highway driving test, OSA study
Type: in vivo, human
Experimental: This was a randomized, double-blind, placebo-controlled, crossover, on-road driving study in subjects with EDS due to OSA. A total of 40 adult subjects were planned for enrollment, and 34 subjects were randomized. Subjects received either solriamfetol (150 mg QD for 3 days, followed by 300 mg QD for 4 days) or matching placebo for 7 days, and then crossed over to receive the other treatment regimen for 7 days (FIG. 4). […] The PVT was administered predose and prior to each driving test. Actigraphy and a sleep diary were used to assess daily sleep patterns. The Toronto Hospital Alertness Test (THAT) was administered at baseline and at the end of each treatment period. A Follow-up Visit was performed approximately 7 days after the final dose of study drug. Subjects were recruited at clinical sites. Eligibility was determined through screening procedures (including a Maintenance of Wakefulness Test [MWT]) at the clinical sites after the washout of prohibited medications, and a practice driving test at the driving test site. A total of 40 adult subjects were planned for enrollment; 34 subjects were randomized and analyzed for safety and efficacy.
Assessments to determine driving performance included: standard deviation of lateral position (SDLP; Verster and Roth 2011; Raemakers 2017), standard deviation of speed (SDS), and number of driving lapses (also known as lane drift, defined as deviations>100 cm from the mean lateral position and from the absolute lateral position for 8 seconds; Vinckenbosch 2020). Driving performance was assessed using a standardized on-road driving test on Day 7 (Visit 4) and on Day 14 (Visit 5). A practice driving test was performed during the screening period to familiarize the subject with the vehicle and test scenario, assess if the subject could adequately operate the manual transmission vehicle, and determine if any safety concerns existed that excluded the subject from participating in the study.
During each drive, subjects operated a specially instrumented vehicle for approximately 1 hour over a 100 km (61 mile) primary highway circuit. During each driving test, each subject was accompanied by a licensed driving instructor who had access to dual controls (i.e., brakes, clutch, and accelerator). The subject or instructor could stop the test if either considered it unsafe to continue. The subject was instructed to drive with a steady lateral position between the delineated boundaries of the slower (right) traffic lane, while maintaining a constant speed of
95 km/h (58 mph). Subjects could deviate from these instructions only to pass a slower vehicle, to respond to a slower speed in traffic ahead of him/her and to leave and re-enter the highway at the turnaround point. During the drive, the vehicle's speed and lateral distance to the left lane line were continuously recorded and captured on an onboard computer disk file. Subjects were transported to and from the driving circuit on each test day.
The primary analysis was based on the mITT population. The primary outcome measure of mean change in SDLP was analyzed using a repeated mixed effect analysis of variance (ANOVA) model. The model included treatment (solriamfetol and placebo), driving performance test (2 hours postdose and 6 hours postdose), treatment period, treatment sequence, and treatment by driving performance test interaction as fixed effects and subject as a random effect. The 2-sided 95% confidence intervals of solriamfetol-placebo changes for SDLP based on the repeated mixed effect ANOVA model was constructed for each driving performance test.
Individual changes (solriamfetol minus placebo) in driving performance were measured by SDLP at 2 hours and 6 hours postdose. The Maximum McNemar symmetry analyses (Laska et al. 2012) were used to detect an asymmetry in the distribution of the change in driving performance at 2 hours and 6 hours post-dose. […]

[1] = 2 hours postdose, mITT, primary analysis, listed as JZP-110
[2] = 2 hours postdose, sequence JZP-110/Placebo, mITT
[3] = 2 hours postdose, sequence Placebo/JZP-110, mITT
[4] = 6 hours postdose, sequence JZP-110/Placebo, mITT
[5] = 6 hours postdose, sequence Placebo/JZP-110, mITT

Structure (SMILES): NC(=O)OC[C@H](N)Cc1ccccc1 [Solriamfetol, (R)-2-amino-3-phenylpropyl carbamate]
- Maximum McNemar test, distribution of change in driving performance (2 hours and 6 hours post-dose, mITT): did not show asymmetry
- driving lapses, LS mean difference solriamfetol vs placebo (2 hours postdose): −1.128 lapses
- standard deviation of speed (SDS), LS mean difference (2 hours postdose): 0.068 km/h
- SDLP, mean (SD), observed (2 hours postdose, day 7, 300 mg/day, mITT): 18.83 (3.690) cm
- SDLP, mean (SD) difference (JZP-110 − Placebo) (2 hours postdose, mITT): −1.11 (2.520) cm
- SDLP, median difference (JZP-110 − Placebo) (2 hours postdose, mITT): −0.78 cm
- SDLP, median, observed (2 hours postdose, mITT): 18.39 cm
- SDLP, LS mean (SE) (2 hours postdose, mITT, primary analysis): 18.83 cm
- SDLP, LS mean (SE) [1]: 18.83 (0.627) cm
- SDLP, LS mean difference (JZP-110 − Placebo) [1]: −1.084 cm
- SDLP, mean (SD) [2]: 18.58 (3.831) cm
- SDLP, mean difference JZP-110 vs placebo [2]: −0.26 cm
- SDLP, median [2]: 17.98 cm
- SDLP, median difference JZP-110 vs placebo [2]: −0.18 cm
- SDLP, mean difference JZP-110 vs placebo [3]: −1.91 cm
- SDLP, median [3]: 20.00 cm
- SDLP, median difference JZP-110 vs placebo [3]: −2.46 cm
- SDLP, mean (SD) (2 hours postdose, sequence Placebo/JZP-110, mITT, listed as JZP-110): 19.08 (3.643) cm
- SDLP, mean (SD) (2 hours postdose, sequence Placebo/JZP-110, mITT, listed as solriamfetol): 19.08 cm
- driving lapses, LS mean difference solriamfetol vs placebo (6 hours postdose): 0.050 lapses
- standard deviation of speed (SDS), LS mean difference (6 hours postdose): −0.109 km/h
- SDLP, LS mean difference, sensitivity analysis (6 hours postdose, PP population): −1.037 cm
- SDLP, LS mean (SE) (6 hours postdose, mITT): 19.24 (0.631) cm
- SDLP, LS mean difference (JZP-110 − Placebo) (6 hours postdose, mITT): −0.804 cm
- SDLP, mean (SD) [4]: 19.23 (3.224) cm
- SDLP, mean difference JZP-110 vs placebo [4]: 0.20 cm
- SDLP, median [4]: 18.92 cm
- SDLP, median difference JZP-110 vs placebo [4]: 0.43 cm
- SDLP, mean difference JZP-110 vs placebo [5]: −1.91 cm
- SDLP, median [5]: 19.24 cm
- SDLP, median difference JZP-110 vs placebo [5]: −1.33 cm
- SDLP, mean (SD) (6 hours postdose, sequence Placebo/JZP-110, mITT, listed as JZP-110): 19.23 (3.593) cm
- SDLP, mean (SD) (6 hours postdose, sequence Placebo/JZP-110, mITT, listed as solriamfetol): 19.23 cm
- SDLP, difference in median values between the 2 treatments (solriamfetol-placebo) (placebo as initial treatment, both time points (2 and 6 hours postdose)): −1.91 cm
- subjects who failed to complete the driving test (solriamfetol condition): 3 subjects
- single McNemar test: proportion improved drivers versus impaired (threshold of 1.0 cm, 2 h post dose): 29.4%
